# Reference: ChEMBL document CHEMBL3227967, “Quantitative structure-activity relationships in 1-aryl-2-(alkylamino)ethanol antimalarials” (J Med Chem, 1979)
# Tested on: Plasmodium berghei
# Assay: Antimalarial activity against Plasmodium berghei
# Assay type: functional
row,Structure (SMILES),log(1/C)
1,CCNCC(O)c1cc(-c2ccc(C(F)(F)F)cc2)nc(-c2ccc(C(F)(F)F)cc2)c1 (centres undefined),3.72
2,OC(CC1CCCCN1)c1cc(-c2ccc(Cl)cc2)nc2c1ccc1ccccc12 (centres undefined),3.2
3,OC(CC1CCCCN1)c1cc(Nc2ccc(Cl)cc2)nc2ccccc12 (centres undefined),2.52
4,CCCCCCCN(CCCCCCC)CC(O)c1c(Br)c2ccccc2c2ccccc12 (centres undefined),3.33
5,CCOc1ccc2nccc(C(O)C[N+]34CCC(CC3)C(CC)C4)c2c1 (centres undefined),1.97
6,CCCCN(CCCC)CC(O)c1cc(/C=C/c2ccc(Cl)cc2)cc(C(F)(F)F)c1 (centres undefined),4.37
7,COc1cc2c(C(O)CC3CCCCN3)cc(-c3ccc(Cl)cc3)cc2cc1Cl (centres undefined),3
8,Cc1ccc(-c2cc(C(O)CC3CCCCN3)c3cccc(C(F)(F)F)c3n2)cc1 (centres undefined),3.94
9,CC(C)(C)NCC(O)c1cc2ccc(Br)cc2c2cc(Br)ccc12 (centres undefined),3.61
10,CCCCCCCN(CCCCCCC)CC(O)c1cccc2cc3cccc(Cl)c3cc12 (centres undefined),2.36
11,CCCC(CCC)NCC(O)c1cc(-c2ccc(Cl)cc2)nc(-c2ccc(Cl)cc2)c1 (centres undefined),4.13
12,OC(CC1CCCCN1)c1cc(-c2ccc(C(F)(F)F)cc2)nc(C(F)(F)F)c1 (centres undefined),4.32
13,CCCCN(CCCC)CC(O)c1cc2cc(Br)cc(Br)c2c2ccccc12 (centres undefined),4.22
14,CCCCN(CCCC)CC(O)c1cc2c(Cl)cccc2c2ccccc12 (centres undefined),2.65
15,CCCCCCCN(CCCCCCC)CC(O)c1c(Br)c2ccccc2c2cc(Br)ccc12 (centres undefined),3.42
16,OC(CN1CCCCC1)c1cc(-c2ccc(F)cc2)nc2cc(F)ccc12 (centres undefined),2.45
17,CCCCN(CCCC)CC(O)c1cc(-c2ccc(Cl)cc2)nc2c(C(F)(F)F)cc(OC)cc12 (centres undefined),3.93
18,CCCCN(CCCC)CC(O)c1cc2c(Cl)cc(Cl)cc2c2cc(C(F)(F)F)ccc12 (centres undefined),4.29
19,OC(CC1CCCCN1)c1cc2ccccc2c2c(C(F)(F)F)cccc12 (centres undefined),3.73
20,CCCCN(CCCC)CC(O)c1cc(-c2ccc(Cl)cc2)nc2c(Cl)cc(Cl)cc12 (centres undefined),4.03
21,CCCCN(CCCC)CC(O)c1cc2ccc(F)cc2c2ccccc12 (centres undefined),2.43
22,CCCCN(CCCC)CC(O)c1cc(-c2ccc(Cl)cc2Cl)nc2c(Cl)cc(Cl)cc12 (centres undefined),3.66
23,CC1CCCNC1CC(O)c1cc(-c2ccccc2)nc2cc(Cl)ccc12 (centres undefined),3.52
24,OC(CNC1CCCC1)c1cc(-c2ccccc2)nc2c(Cl)cc(Cl)cc12 (centres undefined),2.54
25,CCCCNCC(O)c1cc(-c2ccc(Cl)cc2)nc(-c2ccc(Cl)cc2)c1 (centres undefined),3.56

row,Structure (SMILES),log(1/C)
1,CCC(C)N(C)CC(O)c1cc(-c2ccc(Cl)cc2)nc(-c2ccc(Cl)cc2)c1 (centres undefined),3.59
2,CN1CCCCC1CC(O)c1cc(-c2ccccc2)nc2ccc(Cl)cc12 (centres undefined),2.7
3,CCCCN(CCCC)CC(O)c1cc(-c2ccc(I)cc2)nc2ccc(I)cc12 (centres undefined),4.22
4,CCCCN(CCCC)CC(O)c1cccc2ccc3cccc(Cl)c3c12 (centres undefined),2.3
5,CCCCN(CCCC)CC(O)c1cc2ccc(Br)cc2c2ccsc12 (centres undefined),2.57
6,CCCCN(CCCC)CC(O)c1cc(-c2ccc(OC)cc2)nc2cc(Cl)c(Cl)cc12 (centres undefined),3.63
7,CCCCCCN(CCCCCC)CC(O)c1cc(-c2ccc(OC)c(OC)c2)nc2cc(Cl)ccc12 (centres undefined),3.32
8,CCCCN(CCCC)CC(O)c1cc2ccc(C(F)(F)F)cc2c2cc(Cl)ccc12 (centres undefined),3.88
9,CCCCN(CCCC)CC(O)c1cc2ccc(C(C)(C)C)cc2c2cc(C(C)(C)C)ccc12 (centres undefined),3.19
10,CC(C)NCC(O)c1cc2ccc(C(F)(F)F)cc2c2cc(C(F)(F)F)ccc12 (centres undefined),3.8
11,CCCCN(CCCC)CC(O)c1c(Br)c2ccccc2c2cc(Br)ccc12 (centres undefined),3.23
12,CCCCN(CCCC)CC(O)c1cc(-c2ccc(OC)cc2)nc2cc(OC)c(Cl)cc12 (centres undefined),2.71
13,CCCCN(CCCC)CC(O)c1cc(-c2ccc(Cl)cc2)nc2c(C(F)(F)F)cccc12 (centres undefined),3.69
14,CCCCCCCN(CCCCCCC)CC(O)c1cccc2c1ccc1ccc(C(F)(F)F)cc12 (centres undefined),2.34
15,CCCCN(CCCC)CC(O)c1cc(-c2ccccc2)nc(-c2ccccc2)c1 (centres undefined),2.51
16,CCCCCCCN(CCCCCCC)CC(O)c1cc2ccccc2c2ccccc12 (centres undefined),2.87
17,CCCCCN(CCCCC)CC(O)c1cc2ccc(Br)cc2c2cc(Br)ccc12 (centres undefined),3.72
18,OC(CC1CCCCN1)c1cc2ccccc2c2cc(Br)ccc12 (centres undefined),3.49
19,CCCCCCCN(CCCCCCC)CC(O)c1cccc2c1c(Br)cc1ccccc12 (centres undefined),2.27
20,OC(CC1CCCCN1)c1cc2ccc(C(F)(F)F)cc2c2cc(Br)ccc12 (centres undefined),3.86
21,OC(CC1CCCCN1)c1cc2cc3c(cc2c2cc(Cl)ccc12)OCO3 (centres undefined),3.14
22,CCN(Cc1cc(N)ccc1OC)CC(O)c1cc2ccccc2c2cc(Br)ccc12 (centres undefined),2.97
23,OC(CCC1CCCCN1)c1cc2ccc(C(F)(F)F)cc2c2cc(C(F)(F)F)ccc12 (centres undefined),4.11
24,OC(Cc1ccc2ccccc2n1)c1cc2ccc(C(F)(F)F)cc2c2cc(C(F)(F)F)ccc12 (centres undefined),4.11
25,CCCCCCCNCC(O)c1cc(-c2ccc(C(F)(F)F)cc2)nc(-c2ccc(C(F)(F)F)cc2)c1 (centres undefined),3.67

row,Structure (SMILES),log(1/C)
1,CCN(CC)CC(O)c1cc(-c2ccc(Br)cc2)nc(-c2ccc(Br)cc2)c1 (centres undefined),3.13
2,CCCCN(CCCC)CC(O)c1cc2ccc(Cl)cc2c2cc(C(F)(F)F)ccc12 (centres undefined),3.65
3,OC(CC1CCCCN1)c1cc2cc(Cl)ccc2c2c(C(F)(F)F)cccc12 (centres undefined),4.05
4,CCCCCCCN(CCCCCCC)CC(O)c1cc2ccc(Cl)cc2c2cc(C(F)(F)F)ccc12 (centres undefined),3.61
5,CCCCCCCN(CCCCCCC)CC(O)c1c2ccccc2c(Cl)c2ccccc12 (centres undefined),3.7
6,CCCCCCCN(CCCCCCC)CC(O)c1c(Br)ccc2c1ccc1ccccc12 (centres undefined),2.5
7,CCCCN(CCCC)CC(O)c1cc(C23CC4CC(CC(C4)C2)C3)nc2c(Cl)cc(Cl)cc12 (centres undefined),3.29
8,CCCCCCCN(CCCCCCC)CC(O)c1c2cccc(Cl)c2cc2c(Cl)cccc12 (centres undefined),3.92
9,CCCCCCCN(CCCCCCC)CC(O)c1cc2ccccc2c2ncccc12 (centres undefined),2.25
10,CCCCCCCN(CCCCCCC)CC(O)c1cc2ccc(Cl)c(Cl)c2c2cc(C(F)(F)F)ccc12 (centres undefined),3.92
11,CCCCNCCC(O)c1cc2ccc(C(F)(F)F)cc2c2cc(C(F)(F)F)ccc12 (centres undefined),4.73
12,CCCCN(CCCC)CC(O)c1cc(C(=O)c2ccccc2)nc2c(Cl)cc(Cl)cc12 (centres undefined),3.03
13,OC(CNC1CCC1)c1cc(-c2ccc(C(F)(F)F)cc2)nc(-c2ccc(C(F)(F)F)cc2)c1 (centres undefined),3.85
14,CCCCCCCN(CCCCCCC)CC(O)c1cc(-c2ccc(Cl)cc2)nc2c(C(F)(F)F)cccc12 (centres undefined),3.13
15,CCCCN(CCCC)C(C)CC(O)c1cc(-c2ccc(Cl)cc2)nc2c(C)cc(C)cc12 (centres undefined),2.42
16,COc1cc(C(F)(F)F)c2nc(C(F)(F)F)cc(C(O)CC3CCCCN3)c2c1 (centres undefined),3.98
17,CC(C)(C)NCCC(O)c1cc(C(F)(F)F)nc2c(C(F)(F)F)cccc12 (centres undefined),3.47
18,CCCN(CCC)CC(O)c1cc2ccc(C(F)(F)F)cc2c2cc(Cl)c(Cl)cc12 (centres undefined),4.3
19,CCCCN(CCCC)CC(O)c1cc(-c2ccc(Cl)cc2)nc2ccc(F)cc12 (centres undefined),3.11
20,CC(C)N(C)CC(O)c1cc(-c2ccc(Cl)cc2)nc2c(Cl)cc(Cl)cc12 (centres undefined),3.72
21,CCCN(CCC)CC(O)c1cc2ccc(Cl)c(Cl)c2c2cc(C(F)(F)F)ccc12 (centres undefined),4.03
22,CCCCCCCN(CCCCCCC)CC(O)c1cc2cc(Cl)ccc2c2ccccc12 (centres undefined),3.09
23,CCCCN(CCCC)CC(O)c1cc(/C=C/c2ccc(Cl)cc2)nc(C23CC4CC(CC(C4)C2)C3)c1 (centres undefined),2.72
24,CCCCN(CCCC)CC(O)c1cc(-c2cccc(C(F)(F)F)c2)nc(-c2ccc(Cl)c(Cl)c2)c1 (centres undefined),2.9
25,CCCCCCCN(CCCCCCC)CC(O)c1cccc2c1ccc1ccc(Cl)cc12 (centres undefined),2.54

row,Structure (SMILES),log(1/C)
1,CCCCCCCN(CCCCCCC)CC(O)c1cc2ccccc2c2ccc(Cl)cc12 (centres undefined),2.97
2,CCCCN(CCCC)CC(O)c1cccc2cc3ccccc3cc12 (centres undefined),2.27
3,CCCCN(CCCC)CC(O)c1cc(-c2ccc(C)cc2)nc2c(C)cc(C)cc12 (centres undefined),2.72
4,CCCCN(CCCC)CC(O)c1cc2ccc(Cl)c(Cl)c2c2cc(C(F)(F)F)ccc12 (centres undefined),3.98
5,CCCCN(CCCC)CC(O)c1cc(Cl)cc2c1-c1ccc(Cl)cc1C2=O (centres undefined),3.39
6,CCN(CC)CC(O)c1cc(-c2ccc(Cl)c(Cl)c2)nc2cc(OC)ccc12 (centres undefined),3.32
7,CCCCCCCN(CCCCCCC)CC(O)c1cc(-c2ccc(Cl)cc2)cc2ccc(OC)cc12 (centres undefined),4.18
8,CCC(C)NCC(O)c1cc(-c2ccc(C(F)(F)F)cc2)nc(-c2ccc(C(F)(F)F)cc2)c1 (centres undefined),4.15
9,CCCCCCCN(CCCCCCC)CC(O)c1cc2ccccc2c2cc(Br)ccc12.O=C(O)CCC(=O)O (centres undefined),3.52
10,CCCCN(CCCC)CC(O)c1cc2c(Cl)cc(Cl)cc2c2ncccc12 (centres undefined),2.94
11,CCCCN(CCCC)CC(O)c1cccc2ccc3cccc(Br)c3c12 (centres undefined),2.23
12,CCCCN(CCCC)CC(O)c1cc(Cc2ccccc2)nc2c(Cl)cccc12 (centres undefined),2.3
13,CCCCN(CCCC)CC(O)c1cc2cc(Cl)cc(Cl)c2c2ccc(Cl)cc12 (centres undefined),4.12
14,CCCCCCCN(CCCCCCC)CC(O)c1cc2c(Cl)cc(Cl)cc2c2cc(C(F)(F)F)ccc12 (centres undefined),3.53
15,COc1ccc2nc(C(F)(F)F)cc(C(O)CC3CCCCN3)c2c1 (centres undefined),2.97
16,CCCCCCCN(CCCCCCC)CC(O)c1cc2c(Cl)cc(Cl)cc2c2sccc12 (centres undefined),2.89
17,OC(CCNC1CCCCC1)c1cc2ccc(C(F)(F)F)cc2c2cc(C(F)(F)F)ccc12 (centres undefined),4.53
18,CCCCCCCN(CCCCCCC)CC(O)c1cc2ccc(Br)cc2c2cc(Br)ccc12 (centres undefined),3.45
19,CCCCN(CCCC)CC(O)c1cc(-c2ccc(OC)c(OC)c2)nc2ccc(Cl)cc12 (centres undefined),3.33
20,OC(CC1CCCCN1)c1cc2ccc(Br)cc2c2cc(C(F)(F)F)ccc12 (centres undefined),3.7
21,CCCCN(CCCC)CCC(O)c1cc2ccccc2c2ccccc12 (centres undefined),2.45
22,CCCCCCCN(CCCCCCC)CC(O)c1cc2ccc(C(F)(F)F)cc2c2cc(Cl)sc12 (centres undefined),3.38
23,OC(CC1CCCCN1)c1ccnc2c(Cl)cccc12 (centres undefined),2.01
24,CCCCCCN(CCCCCC)CC(O)c1cc(-c2ccc(Cl)cc2)nc2cc(OC)c(Cl)cc12 (centres undefined),2.8
